Reference: ChEMBL document CHEMBL1130879, “trans-3-Benzyl-4-hydroxy-7-chromanylbenzoic acid derivatives as antagonists of the leukotriene B4 (LTB4) receptor” (Bioorg Med Chem Lett, 1998)

Legend:
[1] = target: T1, Leukotriene B4 receptor (Homo sapiens, UniProt Q9NPC1+Q15722); test: Ability to inhibit LTB4-induced chemotaxis of isolated human neutrophils.; assay type: functional
[2] = target: T1, Leukotriene B4 receptor; test: Ability to inhibit LTB4 binding to LTB receptors on isolated human neutrophils.; assay type: protein assay
[3] = target: Leukotriene B4 receptor (Cavia porcellus); test: Compound was evaluated for its ability to inhibit [3H]LTB4 binding to LTB4 receptors on guinea pig spleen membranes
[4] = target: T1, Leukotriene B4 receptor; test: Ability to inhibit LTB4-induced CD11b up-regulation on isolated human neutrophils in whole blood; assay type: functional, tissue-based
[5] = target: T1, Leukotriene B4 receptor; test: Ability to inhibit LTB4-induced CD11b up-regulation on isolated human neutrophils; assay type: functional
[6] = Ratio of CD11b(WB) IC50 to CD11b (IC)IC50; assay type: functional

| IC50 [1] | IC50 [2] | IC50 [3] | IC50 [4] | IC50 [5] | SMILES | Ratio [6] |
| --- | --- | --- | --- | --- | --- | --- |
| 1800 nM | 54 nM |  |  |  | O=C(O)c1ccc(F)cc1-c1ccc2c(c1)OC[C@H](Cc1ccc(C(F)(F)F)cc1)[C@H]2O |  |
|  |  | 4700 nM |  |  | CNC(=O)c1ccc(C(=O)O)c(-c2ccc3c(c2)OC[C@H](Cc2ccccc2)[C@H]3O)c1 |  |
| 210 nM | 190 nM |  |  |  | CC(C)c1ccc(C[C@H]2COc3cc(-c4cc(F)ccc4C(=O)O)ccc3[C@@H]2O)cc1 |  |
| 24 nM | 46 nM |  | 890 nM | 750 nM | O=C(O)c1c(-c2ccc3c(c2)OC[C@H](Cc2ccccc2)[C@H]3O)cccc1C(F)(F)F | 1.2 |
| 400 nM | 54 nM |  |  |  | O=C(O)c1ccc(Cl)cc1-c1ccc2c(c1)OC[C@H](Cc1ccc(F)cc1)[C@H]2O |  |
| 9000 nM | 400 nM |  |  |  | O=C(O)c1ccc(Cl)cc1-c1ccc2c(c1)OC[C@H](Cc1ccc(C(F)(F)F)cc1)[C@H]2O |  |
| 2250 nM | 100 nM |  |  |  | O=C(O)c1ccc(Cl)cc1-c1ccc2c(c1)OC[C@H](Cc1ccc3ccccc3c1)[C@H]2O |  |
| 300 nM | 24 nM |  |  |  | O=C(O)c1cc(F)ccc1-c1ccc2c(c1)OC[C@H](Cc1ccccc1)[C@H]2O |  |
| 40 nM | 5 nM |  | 200 nM | 300 nM | O=C(O)c1c(F)cc(F)cc1-c1ccc2c(c1)OC[C@H](Cc1ccccc1)[C@H]2O | 0.7 |
| 32 nM | 35 nM |  |  |  | O=C(O)c1ccc(F)cc1-c1ccc2c(c1)OC[C@H](CCc1ccccc1)[C@H]2O |  |
| 17 nM | 37 nM |  | > 10000 nM | 540 nM | NS(=O)(=O)c1ccc(F)cc1-c1ccc2c(c1)OC[C@H](Cc1ccccc1)[C@H]2O |  |
|  |  | 160 nM |  |  | COc1ccc(C(=O)O)c(-c2ccc3c(c2)OC[C@H](Cc2ccccc2)[C@H]3O)c1 |  |
| 110 nM | 20 nM |  |  |  | O[C@H]1c2ccc(-c3cc(F)ccc3-c3nn[nH]n3)cc2OC[C@@H]1Cc1ccccc1 |  |
| 9 nM | 1700 nM |  |  |  | OCc1ccc(C(F)(F)F)cc1-c1ccc2c(c1)OC[C@H](Cc1ccccc1)[C@H]2O |  |
| 58 nM | 70 nM |  |  |  | O=C(O)c1ccc(C(F)(F)F)cc1-c1ccc2c(c1)OC[C@H](Cc1ccc(Cl)cc1)[C@H]2O |  |
| 6400 nM | 1700 nM |  |  |  | COC(=O)c1ccc(Cl)cc1-c1ccc2c(c1)OC[C@H](Cc1ccccc1)[C@H]2O |  |
|  |  | > 1000 nM |  |  | O=C(O)c1ccc(C(=O)O)c(-c2ccc3c(c2)OC[C@H](Cc2ccccc2)[C@H]3O)c1 |  |
|  |  | 120 nM |  |  | O=C(O)c1ccccc1-c1ccc2c(c1)OC[C@H](Cc1ccccc1)[C@H]2O |  |
| 26 nM | 12 nM | 59 nM |  |  | O=C(O)c1ccc(Cl)cc1-c1ccc2c(c1)OC[C@H](Cc1ccccc1)[C@H]2O (stereo in doubt; 5) |  |
| 30 nM | 14 nM |  | 1300 nM | 265 nM | O=C(O)c1ccc(Cl)cc1-c1ccc2c(c1)OC[C@H](Cc1ccccc1)[C@H]2O (stereo in doubt; 6) [listing 1 of 2 here] |  |
|  |  |  |  |  | O=C(O)c1ccc(Cl)cc1-c1ccc2c(c1)OC[C@H](Cc1ccccc1)[C@H]2O (stereo in doubt; 6) [listing 2 of 2 here] | 4.9 |
| 83 nM | 200 nM |  |  |  | O=C(O)c1ccc(Cl)cc1-c1ccc2c(c1)OC[C@H](Cc1ccccc1)[C@H]2O (stereo in doubt; 7) |  |
| 5 nM | 12 nM |  |  |  | O=C(O)c1ccc(F)cc1-c1ccc2c(c1)OC[C@H](Cc1ccccc1)[C@H]2O (stereo in doubt; 8) |  |
| 14 nM | 3 nM |  | 600 nM | 240 nM | O=C(O)c1ccc(F)cc1-c1ccc2c(c1)OC[C@H](Cc1ccccc1)[C@H]2O (stereo in doubt; 9) [listing 1 of 2 here] |  |
|  |  |  |  |  | O=C(O)c1ccc(F)cc1-c1ccc2c(c1)OC[C@H](Cc1ccccc1)[C@H]2O (stereo in doubt; 9) [listing 2 of 2 here] | 2.5 |

| IC50 [1] | IC50 [2] | IC50 [3] | IC50 [4] | IC50 [5] | SMILES | Ratio [6] |
| --- | --- | --- | --- | --- | --- | --- |
| 5 nM | 27 nM |  | 3500 nM | 3000 nM | O=C(O)c1ccc(F)cc1-c1ccc2c(c1)OC[C@H](Cc1ccccc1)[C@H]2O (stereo in doubt; 10) [listing 1 of 2 here] |  |
|  |  |  |  |  | O=C(O)c1ccc(F)cc1-c1ccc2c(c1)OC[C@H](Cc1ccccc1)[C@H]2O (stereo in doubt; 10) [listing 2 of 2 here] | 1.2 |
| 10 nM | 22 nM |  |  |  | O=C(O)c1c(F)cccc1-c1ccc2c(c1)OC[C@H](Cc1ccccc1)[C@H]2O (stereo in doubt; 12) |  |
| 40 nM | 11 nM |  | 1000 nM | 400 nM | O=C(O)c1c(F)cccc1-c1ccc2c(c1)OC[C@H](Cc1ccccc1)[C@H]2O (stereo in doubt; 13) [listing 1 of 2 here] |  |
|  |  |  |  |  | O=C(O)c1c(F)cccc1-c1ccc2c(c1)OC[C@H](Cc1ccccc1)[C@H]2O (stereo in doubt; 13) [listing 2 of 2 here] | 2.5 |
| 650 nM | 240 nM |  |  |  | O=C(O)c1c(F)cccc1-c1ccc2c(c1)OC[C@H](Cc1ccccc1)[C@H]2O (stereo in doubt; 14) |  |
| 7 nM | 13 nM |  |  |  | O=C(O)c1ccc(C(F)(F)F)cc1-c1ccc2c(c1)OC[C@H](Cc1ccccc1)[C@H]2O (stereo in doubt; 15) [CP-195543] |  |
|  |  |  |  |  | O=C(O)c1ccc(C(F)(F)F)cc1-c1ccc2c(c1)OC[C@H](Cc1ccccc1)[C@H]2O (stereo in doubt; 16) | 2.3 |
| 2.4 nM | 6.8 nM |  | 660 nM | 280 nM | O=C(O)c1ccc(C(F)(F)F)cc1-c1ccc2c(c1)OC[C@H](Cc1ccccc1)[C@H]2O (stereo in doubt; 16) [CP-195543] |  |
| 2 nM | 56 nM |  |  |  | O=C(O)c1ccc(C(F)(F)F)cc1-c1ccc2c(c1)OC[C@H](Cc1ccccc1)[C@H]2O (stereo in doubt; 17) [CP-195543] |  |
| 6 nM | 4 nM |  | 1700 nM | 520 nM | O=C(O)c1ccc(Cl)cc1-c1ccc2c(c1)OC[C@H](Cc1ccc(-c3ccccc3)cc1)[C@H]2O (stereo in doubt; 22) [listing 1 of 2 here] |  |
|  |  |  |  |  | O=C(O)c1ccc(Cl)cc1-c1ccc2c(c1)OC[C@H](Cc1ccc(-c3ccccc3)cc1)[C@H]2O (stereo in doubt; 22) [listing 2 of 2 here] | 3.3 |
| 26 nM | 8 nM |  | 3900 nM | 590 nM | O=C(O)c1ccc(Cl)cc1-c1ccc2c(c1)OC[C@H](Cc1ccc(-c3ccccc3)cc1)[C@H]2O (stereo in doubt; 23) [listing 1 of 2 here] |  |
|  |  |  |  |  | O=C(O)c1ccc(Cl)cc1-c1ccc2c(c1)OC[C@H](Cc1ccc(-c3ccccc3)cc1)[C@H]2O (stereo in doubt; 23) [listing 2 of 2 here] | 6.6 |
| 56 nM | 4 nM |  | 700 nM | 280 nM | O=C(O)c1ccc(F)cc1-c1ccc2c(c1)OC[C@H](Cc1ccc(-c3ccccc3)cc1)[C@H]2O (stereo in doubt; 24) [listing 1 of 2 here] |  |
|  |  |  |  |  | O=C(O)c1ccc(F)cc1-c1ccc2c(c1)OC[C@H](Cc1ccc(-c3ccccc3)cc1)[C@H]2O (stereo in doubt; 24) [listing 2 of 2 here] | 2.5 |
| 5 nM | 14 nM |  | 5100 nM | 700 nM | O=C(O)c1ccc(F)cc1-c1ccc2c(c1)OC[C@H](Cc1ccc(-c3ccccc3)cc1)[C@H]2O (stereo in doubt; 25) [listing 1 of 2 here] |  |
|  |  |  |  |  | O=C(O)c1ccc(F)cc1-c1ccc2c(c1)OC[C@H](Cc1ccc(-c3ccccc3)cc1)[C@H]2O (stereo in doubt; 25) [listing 2 of 2 here] | 7.3 |
| 6 nM | 38 nM |  | 1900 nM | 120 nM | O=C(O)c1ccc(C(F)(F)F)cc1-c1ccc2c(c1)OC[C@H](Cc1ccc(-c3ccccc3)cc1)[C@H]2O (stereo in doubt; 26) [listing 1 of 2 here] |  |
|  |  |  |  |  | O=C(O)c1ccc(C(F)(F)F)cc1-c1ccc2c(c1)OC[C@H](Cc1ccc(-c3ccccc3)cc1)[C@H]2O (stereo in doubt; 26) [listing 2 of 2 here] | 15.8 |
| 7 nM | 27 nM |  | 4000 nM | 820 nM | O=C(O)c1ccc(C(F)(F)F)cc1-c1ccc2c(c1)OC[C@H](Cc1ccc(-c3ccccc3)cc1)[C@H]2O (stereo in doubt; 27) [listing 1 of 2 here] |  |
|  |  |  |  |  | O=C(O)c1ccc(C(F)(F)F)cc1-c1ccc2c(c1)OC[C@H](Cc1ccc(-c3ccccc3)cc1)[C@H]2O (stereo in doubt; 27) [listing 2 of 2 here] | 4.9 |
| 15 nM | 3.8 nM |  | 330 nM | 360 nM | O=S(=O)(Nc1ccc(F)cc1-c1ccc2c(c1)OC[C@H](Cc1ccccc1)[C@H]2O)C(F)(F)F (stereo in doubt; 38) [listing 1 of 2 here] |  |
|  |  |  |  |  | O=S(=O)(Nc1ccc(F)cc1-c1ccc2c(c1)OC[C@H](Cc1ccccc1)[C@H]2O)C(F)(F)F (stereo in doubt; 38) [listing 2 of 2 here] | 0.9 |
| 44 nM | 50 nM |  | > 3000 nM | > 3000 nM | O=S(=O)(Nc1ccc(F)cc1-c1ccc2c(c1)OC[C@H](Cc1ccccc1)[C@H]2O)C(F)(F)F (stereo in doubt; 39) |  |
